Results from patent publication US9937259B2, “Abiraterone derivatives and non-covalent complexes with albumin” (Zhuhai Beihai Biotech Co., Ltd., priority 2014, dated 2018).

Experiments:
[1] = Persistence in plasma (incubation at 37° C., LC-MS/MS); type: in vitro ADME, human; conditions: for Peak Area Ratio (Analyte/IS): Human Plasma
Method: Test compounds and control (procaine) were incubated at a concentration of 10 μM with human plasma. […]
After quenching by acetonitrile, the plates were capped, vortexed, and centrifuged at 3000 rpm for 10 minutes. The supernatant was injected into LC-MS/MS.

[2] = Persistence in plasma study, PBS buffer incubation; type: physicochemical; conditions: for Peak Area Ratio (Analyte/IS): PBS Buffer (pH 7.4), 37° C.; for % Remaining after 24-hr Incubation at 37° C.: PBS buffer
[3] = oral drug, poor absorption; cited from earlier work
[4] = depending on fat content of the meal; cited from earlier work
[5] = product insert; cited from earlier work
CYP3A4 liver enzyme = CYP3A4 liver enzyme (Homo sapiens, UniProt P08684); conditions: cited from earlier work
CYP3A4 liver enzyme, sequence (P08684 whole entry): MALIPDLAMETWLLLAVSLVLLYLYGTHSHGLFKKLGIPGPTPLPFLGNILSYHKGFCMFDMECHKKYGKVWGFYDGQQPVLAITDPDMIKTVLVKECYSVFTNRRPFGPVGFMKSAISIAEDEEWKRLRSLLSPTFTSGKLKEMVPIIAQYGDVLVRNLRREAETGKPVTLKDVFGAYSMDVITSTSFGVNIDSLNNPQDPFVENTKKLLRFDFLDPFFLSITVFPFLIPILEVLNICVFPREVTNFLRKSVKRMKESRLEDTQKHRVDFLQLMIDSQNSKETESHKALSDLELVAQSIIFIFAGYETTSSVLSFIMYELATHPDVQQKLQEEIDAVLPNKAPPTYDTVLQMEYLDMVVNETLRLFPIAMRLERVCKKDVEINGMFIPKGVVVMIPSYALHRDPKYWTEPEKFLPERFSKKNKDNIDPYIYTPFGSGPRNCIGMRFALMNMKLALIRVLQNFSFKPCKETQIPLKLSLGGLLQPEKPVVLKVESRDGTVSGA

With `CCN(CC)CCOC(=O)c1ccc(N)cc1` [Procaine] the “Peak Area Ratio (Analyte/IS)” value ([1]; 0 hr, Replicate 1) was 0.443, the “Peak Area Ratio (Analyte/IS)” value ([1]; 0 hr, Replicate 2) was 0.444 and the “Peak Area Ratio (Analyte/IS)” value ([1]; 24 hr, 37° C., Replicate 1) was 0.0. For the same compound, the “Peak Area Ratio (Analyte/IS)” value ([1]; 24 hr, 37° C., Replicate 2) was 0.0, the “% Remaining after 24-hr Incubation at 37° C.” value (“% Remaining” for short) ([1]; human, plasma, 24 h, 10 μM) was 0.0% and the “Peak Area Ratio (Analyte/IS)” value ([2]; Replicate 1) was 0.0916. The “Peak Area Ratio (Analyte/IS)” value ([2]; Replicate 2) was 0.357, the “% Remaining” value ([2]; Average) was 51% and the “% Remaining” value ([2]; Replicate 1) was 20.65%. For the same compound, the “% Remaining” value ([2]; Replicate 2) was 80.5%.

For `CC(=O)O[C@H]1CC[C@@]2(C)C(=CC[C@@H]3[C@@H]2CC[C@]2(C)C(c4cccnc4)=CC[C@@H]32)C1` [abiraterone acetate], the Administered drug excreted [3] is given as 77%, the Food-effect [4] is given as “five- to ten-fold” and the Solubility in water [5] is given as “practically insoluble”. The “Substrate of CYP3A4” value (CYP3A4 liver enzyme) was “substrate”.
